Results on five compounds are retold here after US20210395210A1, “INHIBITION OF BACTERIAL CHAPERONIN SYSTEMS” (THE TRUSTEES OF INDIANA UNIVERSITY, priority 2018, published 2021).

One assay deals with T1, native MDH (Sus scrofa, UniProt P00346).
T1 construct: soluble pig heart MDH from Roche, product #10127248001; purchased Roche 10127248001; host or cells: pig heart
T1 sequence (P00346 25-338): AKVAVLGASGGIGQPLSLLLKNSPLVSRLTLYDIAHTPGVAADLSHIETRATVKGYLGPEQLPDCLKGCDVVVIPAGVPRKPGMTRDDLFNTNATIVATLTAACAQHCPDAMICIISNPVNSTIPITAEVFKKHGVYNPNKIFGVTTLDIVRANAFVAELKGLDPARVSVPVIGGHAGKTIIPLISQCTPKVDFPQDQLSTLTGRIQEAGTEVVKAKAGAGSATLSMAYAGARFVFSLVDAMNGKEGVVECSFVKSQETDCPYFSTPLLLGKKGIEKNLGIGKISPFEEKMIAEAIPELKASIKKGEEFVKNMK
Description: Counter-screen for inhibition of native MDH enzymatic activity. It counts as biochemical, pig. The method, boiled down: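 Compounds were added only after GroEL/ES-mediated MDH refolding (45 min, 37 °C) had been EDTA-quenched, so only refolded MDH activity is probed.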

Assay [1] relates to Enterococcus faecium (ATCC 19434). Description: Bacterial proliferation assay, E. faecium. It counts as cell-based. In short, it runs like this: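 Enterococcus faecium ATCC 19434 was grown overnight at 37° C. in BHI broth supplemented with 25 mg/L Ca^2+ and 12.5 mg/L Mg^2+, subcultured 1:5, and diluted to OD600 0.017. 30 μL portions went into 384-well plates holding compounds, sealed with oxygen-permeable membranes, and incubated stagnant at 37° C. OD600 was read at 24 h to give EC50.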

Assay [2] concerns Drug sensitive Staphylococcus aureus (ATCC 25923). The assay is described as follows: Bacterial proliferation assay, drug sensitive S. aureus. It counts as cell-based. The method, boiled down: (§1)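 Cultures in BHI broth with 25 mg/L Ca2+ and 12.5 mg/L Mg2+ were diluted to OD600 0.017 and exposed to compounds in 384-well plates at 37 °C without shaking. OD600 was read at 6-8 h (S. aureus, E. cloacae, P. aeruginosa) or 24 h (A. baumannii). EC50 values were averaged over quadruplicates.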

For assay [3], the system named is Methicillin resistant S. aureus (MRSA) (ATCC BAA-44). Description: Bacterial proliferation assay, MRSA. The format is cell-based, Staphylococcus aureus. The following applies: Staphylococcus aureus. The method, boiled down:
as §1

Assay [4] deals with Klebsiella Pneumonia (ATCC 13883). The assay is described as follows: Bacterial proliferation assay, K. pneumoniae. The format is cell-based. The method, boiled down:
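Klebsiella pneumoniae ATCC 13883 was cultured in Brain Heart Infusion medium supplemented with 25 mg/L Ca^2+ and 12.5 mg/L Mg^2+. Cells were diluted to OD600 0.017, and 30 μL was added to 384-well plates holding 0.5 μL compound in 20 μL media. Plates were incubated stagnantly at 37° C., and OD600 was read at 6-8 h to determine EC50.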

The subject of assay [5] is Pseudomonas aeruginosa (ATCC 10145). The assay is described as follows: Bacterial proliferation assay, P. aeruginosa. The format is cell-based. The method, boiled down:
as §1

In assay [6] the test system is Enterobacter cloacae (ATCC 13047). Description: Bacterial proliferation assay, E. cloacae. It counts as cell-based. In short, it runs like this: as §1
The mark [7] stands for this setting: log of IC50 (μM scale), with standard deviation, read-out: log(IC50) Native MDH Reporter (converted).
The mark [8] stands for this setting: read-out: Biochemical Assay IC50 Native MDH Reporter.
[9] abbreviates: ATCC19434, OD600 at 24 h, read-out: Bacterial Proliferation EC50 E. faecium.
[10] abbreviates: ATCC19434, log of EC50 (μM scale), with standard deviation, read-out: log(EC50) Bacterial Proliferation Assay C. faecium (converted).
The mark [11] stands for this setting: ATCC25923, OD600 at 6-8 h, read-out: Bacterial Proliferation EC50 S. aureus Sensitive.
Setting [12] is: ATCC25923, log of EC50 (μM scale), with standard deviation, read-out: log(EC50) Bacterial Proliferation Assay S. aureus Sensitive (converted).
Setting [13] is: MRSA, OD600 at 6-8 h, read-out: Bacterial Proliferation EC50 S. aureus Resistant.
[14] abbreviates: MRSA, log of EC50 (μM scale), with standard deviation, read-out: log(EC50) Bacterial Proliferation Assay S. aureus Resistant (converted).
Setting [15] is: ATCC13883, OD600 at 6-8 h, read-out: Bacterial Proliferation EC50 K. pneumoniae.
Where [16] appears, read: ATCC13883, log of EC50 (μM scale), with standard deviation, read-out: log(EC50) Bacterial Proliferation Assay K. pneumoniae (converted).
The mark [17] stands for this setting: ATCC10145, OD600 at 6-8 h, read-out: Bacterial Proliferation EC50 P. aeruginosa.
Where [18] appears, read: ATCC10145, log of EC50 (μM scale), with standard deviation, read-out: log(EC50) Bacterial Proliferation Assay P. aeruginosa (converted).
The mark [19] stands for this setting: ATCC13047, OD600 at 6-8 h, read-out: Bacterial Proliferation EC50 E. cloacae.
The mark [20] stands for this setting: ATCC13047, log of EC50 (μM scale), with standard deviation, read-out: log(EC50) Bacterial Proliferation Assay E. cloacae (converted).
[21] abbreviates: ATCC19434, 24 h, read-out: Bacterial Proliferation EC50 E. faecium.
Setting [22] is: ATCC19434, read-out: log(EC50) Bacterial Proliferation Assay C. faecium (converted).
The mark [23] stands for this setting: ATCC25923, read-out: Bacterial Proliferation EC50 S. aureus Sensitive.
The mark [24] stands for this setting: ATCC25923, read-out: log(EC50) Bacterial Proliferation Assay S. aureus Sensitive (converted).
Where [25] appears, read: read-out: Bacterial Proliferation EC50 S. aureus Resistant.
The mark [26] stands for this setting: read-out: log(EC50) Bacterial Proliferation Assay S. aureus Resistant (converted).
Setting [27] is: ATCC13883, read-out: Bacterial Proliferation EC50 K. pneumoniae.
The mark [28] stands for this setting: ATCC13883, read-out: log(EC50) Bacterial Proliferation Assay K. pneumoniae (converted).
Setting [29] is: ATCC10145, read-out: Bacterial Proliferation EC50 P. aeruginosa.
Where [30] appears, read: ATCC10145, read-out: log(EC50) Bacterial Proliferation Assay P. aeruginosa (converted).
The mark [31] stands for this setting: ATCC13047, read-out: Bacterial Proliferation EC50 E. cloacae.
[32] abbreviates: ATCC13047, read-out: log(EC50) Bacterial Proliferation Assay E. cloacae (converted).

Like-named read-outs stand apart in the source and are kept apart here. Bounds are passed on as bounds.

For orientation: IC50 means the concentration at which inhibition is half-maximal. For the compound `O=C(Nc1cccc(Cl)c1)c1ccccc1O` [Compound 12, N-(3-Chlorophenyl)-2-hydroxybenzamide], the IC50 was over 63.1 µM on native MDH (setting [7]) and over 63 µM at native MDH (setting [8]). In addition, the EC50 was over 100 µM in assay [1] (setting [9]); over 100 µM in assay [1] (setting [10]); 3.1 µM in assay [2] (setting [11]); 3.09 µM in assay [2] (setting [12]); 4.2 µM in assay [3] (setting [13]); 4.17 µM in assay [3] (setting [14]). Further, the EC50 in assay [4] (setting [15]), in assay [4] (setting [16]), in assay [5] (setting [17]), in assay [5] (setting [18]), in assay [6] (setting [19]) and in assay [6] (setting [20]) was over 100 µM in each case.

As for `COc1c(Br)cc(Br)cc1C(=O)Nc1ccc(Sc2nc3ccccc3s2)cc1` [Compound 33, N-(4-(Benzo[d]thiazol-2-ylthio)phenyl)-3,5-dibromo-2-methoxybenzamide], the IC50 is over 63.1 µM at native MDH (setting [7]) and over 63 µM at native MDH (setting [8]). Further, the EC50 in assay [1] (setting [9]), in assay [1] (setting [10]), in assay [2] (setting [11]), in assay [2] (setting [12]), in assay [3] (setting [14]) and in assay [4] (setting [15]) was over 100 µM in each case. Besides, the EC50 in assay [4] (setting [16]), in assay [5] (setting [17]), in assay [5] (setting [18]), in assay [6] (setting [19]) and in assay [6] (setting [20]) was over 100 µM each time.

Consider `O=C(Nc1ccc(Sc2nc3ccccc3s2)c(Cl)c1)c1ccccc1` [Compound 19, N-(4-(Benzo[d]thiazol-2-ylthio)-3-chlorophenyl)benzamide], for which the IC50 on native MDH (setting [7]) is over 63.1 µM; on native MDH (setting [8]) it was over 63 µM. In addition, the EC50 in assay [1] (setting [9]) is over 100 µM; in assay [1] (setting [10]), over 100 µM; in assay [2] (setting [11]) it was 43 µM; in assay [2] (setting [12]), 42.7 µM; in assay [3] (setting [13]), over 100 µM; in assay [3] (setting [14]) it was over 100 µM. Further, the EC50 in assay [4] (setting [15]), in assay [4] (setting [16]), in assay [5] (setting [17]), in assay [5] (setting [18]), in assay [6] (setting [19]) and in assay [6] (setting [20]) was over 100 µM throughout.

As to `O=C(Nc1ccccc1)c1cc(Br)cc(Br)c1O` [Compound 13, 3,5-Dibromo-2-hydroxy-N-phenylbenzamide], the IC50 at native MDH (setting [7]) is 50.1 µM; on native MDH (setting [8]), 51 µM. Further, the EC50 in assay [1] (setting [21]) is over 100 µM; in assay [1] (setting [22]), over 100 µM; in assay [2] (setting [23]) it was 1.2 µM; in assay [2] (setting [24]) it was 1.23 µM; in assay [3] (setting [25]), 2 µM; in assay [3] (setting [26]), 2 µM. Besides, the EC50 in assay [4] (setting [27]), in assay [4] (setting [28]), in assay [5] (setting [29]), in assay [5] (setting [30]), in assay [6] (setting [31]) and in assay [6] (setting [32]) was over 100 µM throughout.

For the compound `O=C(Nc1ccc(Sc2nc3ccccc3s2)c(Cl)c1)c1cc(Br)ccc1O` [Compound 3, N-(4-(Benzo[d]thiazol-2-ylthio)-3-chlorophenyl)-5-bromo-2-hydroxybenzamide], the “inhibition of native MDH enzymatic activity (in words)” value against native MDH (false-positive counter-screen) was “inactive against the reporter enzymes”. Besides, the half-maximal inhibitory concentration (IC50) on native MDH (setting [7]) was over 63.1 µM; at native MDH (setting [8]), over 63 µM. The EC50 in assay [1] (setting [21]) is 15 µM; in assay [1] (setting [22]), 14.8 µM; in assay [2] (setting [23]), 0.12 µM; in assay [2] (setting [24]), 0.117 µM; in assay [3] (setting [25]), 0.17 µM; in assay [3] (setting [26]), 0.17 µM. Besides, the EC50 in assay [4] (setting [27]), in assay [4] (setting [28]), in assay [5] (setting [29]), in assay [5] (setting [30]), in assay [6] (setting [31]) and in assay [6] (setting [32]) was over 100 µM in each case.
